# Data published in patent US8377883B2, “Peptide for anti-angiogenesis and use thereof” (Beijing Institute for Cancer Research, priority 2006, dated 2013).
# Key:
# [1] = tested on: tumor microvessel; assay: Tumor microvessel density (MVD) by factor VIII immunohistochemistry; assay type: in vivo, mice
# Protocol: In order to confirm that the suppression of FpAT on tumor growth in mice in vivo is achieved by suppressing angiogenesis, an analysis of microvessel density in tumor was performed in this example by using tumor mass in Examples 4 and 5.
# The tumor masses were fixed with formaldehyde, and then cut into serial section of 3 μm. The paraffin sections were dewaxed to water, and incubated in 3% H2O2 at room temperature for 10 minutes, to which rabbit anti-human factor VIII polyclonal antibody (DAKO company) was added dropwise, and after left at 4° C. overnight; 1:200 sheep anti-rabbit IgG labeled with biotin (Beijing ZhongShan bioengineering Company) was added dropwise, and incubated at 37° C. for 30 minutes. […] Then a visual field with most interstitial blood vessels of cancer nest was chosen, and under a ×400 magnitude field, 3 visual fields were counted by 3 observers individually according to double blind method; wherein individual cells and cell clusters stained brown were observed and taken as one blood vessel, whereas blood vessel cavities and erythrocytes therein were not counted, and blood vessel or vessel cavities in muscular layer larger than 50 μm were excluded. The average value of numbers counted by 3 individuals was taken as MVD (microvessel density) result of this case for a statistics analysis, see Table 4.
# [2] = tested on: mouse liver cancer H22 cells; assay: Tumor suppression in liver cancer H22 cells tumor-bearing mouse model (Example 4); assay type: in vivo, mice of Kunming strain; conditions: 50 m/1000 PBS/injection, angulus oculi medialis vein daily, 7 times; vs PBS control, P<0.05
# Protocol: To confirm the biological effects of FpAT on the growth of mice deriving tumor in mice in vivo, a tumor suppression experiment was carried out in this example using liver cancer H22 cells tumor-bearing mouse model of mice of Kunming strain and osteosarcoma S180 cells tumor-bearing mouse model of mice of Kunming strain. Forty 5-week old mice of Kunming strain purchased from Animal Center Of Chinese Academy Of Medical Sciences were inoculated subcutaneously in forelimb with mouse liver cancer H22 cells (National Institute for the Control of Pharmaceutical and Biological Products) (5×10^6/100 μl/mouse) or osteosarcoma S180 cells (National Institute for the Control of Pharmaceutical and Biological Products) (5×10^6/100 μl/mouse). On the next day after inoculation, each kind of inoculated cells were divided into 2 groups randomly with 10 mice per group. FpAT ([…]) or vehicle (the solvent for peptide) control (PBS:100 μl/injection) were injected in angulus oculi medialis vein daily, 7 times in total. The mice were sacrificed by dislocating the neck on the next day after administration was stopped, and the tumors were taken and weighed for a statistical analysis.
# [3] = tested on: human gastric carcinoma BGC-823 cells; assay: Tumor suppression in human gastric carcinoma BGC-823 tumor-bearing nude mice model; assay type: in vivo, Balb/c nude mice; conditions: 50 μg/100 μl PBS/injection, angulus oculi medialis vein once every other day, 10 times; vs vehicle, P<0.05
# Protocol: (§1) In order to confirm the biological effects of FpAT on the growth of human deriving tumors in nude mice in vivo, a tumor suppression experiment was carried out in this example using human gastric carcinoma BGC-823 cells tumor-bearing nude mice model, human lung cancer PG cells tumor-bearing nude mice model and human colon cancer HT-29 cells tumor-bearing nude mice model.
# (§2) Twenty 5-week old Balb/c nude mice purchased from Animal Center Of Chinese Academy Of Medical Sciences were inoculated subcutaneously in forelimb with human gastric carcinoma BGC-823 cells (National Institute for the Control of Pharmaceutical and Biological Products) (5×10^6/100 μl/mouse), human lung cancer PG cells (National Institute for the Control of Pharmaceutical and Biological Products) (5×10^6/100 μl/mouse) or human colon cancer HT-29 cells (ATCC® Number: HTB-38™) (5×10^6/100 μl/mouse). On the next day after inoculation, each kind of inoculated cells were divided into 2 groups randomly with 5 mice per group. […] Observation was continued for another 20 days after administration was stopped, and during this period the long and short diameters of the tumors were measured with a vernier caliper once every three days, and the volumes of the tumor mass were calculated according to formula ½×long diameter×short diameter^2. […]
# [4] = tested on: human lung cancer PG cells; assay: Tumor suppression in human lung cancer PG tumor-bearing nude mice model; assay type: in vivo, Balb/c nude mice; conditions: 50 μg/100 μl PBS/injection, angulus oculi medialis vein once every other day, 10 times; vs vehicle, P<0.05
# Protocol: as §1, §2
substance,measurement,setting,value
"H2N-Asp-Ser-Gly-Glu-Gly-Asp-Phe-Leu-Ala-Glu-Gly-Gly-Gly-Val-Arg-COOH (H-DSGEGDFLAEGGGVR-OH; listed as Homo sapiens) [FpAT, fibrinopeptide A truncated, carboxyl terminal 15 amino acids of fibrinopeptide A]",MVD,"[1]; tumor mass of Examples 4 and 5, 20 visual fields observed totally, PBS group 6.4",2.6 Number of micro vessel/visual field
same,growth of microvessel in tumor tissue,"[1]; vs PBS control group, P<0.05",suppressed significantly the growth of microvessel
same,growth of mouse liver cancer H22 cells in vivo (tumor mass),[2],could suppressed the growths
same,growth of human gastric carcinoma BGC-823 cells in nude mice (tumor mass),[3],could suppress the growths
same,growth of human lung cancer PG cells in nude mice (tumor mass),[4],could suppress the growths
